{"source": "patent US20240301504A1", "about": "“MULTIANALYTE BIOMARKERS FOR LUNG CANCER” (The Curators of the University of Missouri, priority 2021, published 2024)", "tested_on": "H1975 cells", "assay": "Trypan blue exclusion cell death assay in H1975 cells", "format": "cell-based", "settings": "Osimertinib 100 nM, 24 hrs, FIG. 13C", "description": "miRNA Transfections and Osimertinib treatments miRNA stock was prepared by suspending in RNAse-free water. Cells were seeded such that they were 70-80% confluent at the time of transfection. Cells were allowed to adhere for 24 hrs and then transfected with 25 nM of miRNA inhibitors against hsa-miR184 (Sigma #HSTUD0282), hsa-miR22-3p (Sigma #HSTUD0393) or 100 nM of hsa-let7b-5p miRNA mimic (Sigma c #HMI0007) using Lipofectamine 3000 (Invitrogen #L3000001). Osimertinib (100 nM) was added an hour after transfection to cells. Cells were allowed to incubate with transfection mix for 24 hrs at 37° C., 5% CO2 and then washed with 1× PBS and trypsinized to be used for cell count and Western blotting."}
{"compound": "C=CC(=O)Nc1cc(Nc2nccc(-c3cn(C)c4ccccc34)n2)c(OC)cc1N(C)CCN(C)C", "note": "[Osimertinib]", "values": [{"measurement": "H1975 cell death", "value": "induced"}]}
